The values that follow are results of earlier work, collected in US8808722B2, “Stable antiseptic compositions and methods” (3M Innovative Properties Company, priority 2010, dated 2014).

For this data set the following is noted: at 25° C.

As for `II` [elemental iodine, iodine], the solubility in water is on record as 0.03 wt-%.
